Measurements reported in ChEMBL document CHEMBL1201862, “PubChem BioAssay data set” (2004).
Active and inactive are the calls of the source.

Assays:
[1] = control 3'UTR Renilla luciferase suppression, dose response, counter-screen for Shn3 inhibitor project, cell-based, Clone20-Shn3RL, cherry-picked (AID 624133); format: functional
[2] = HepG2 cell cytotoxicity, dose response, cytotoxicity control for Shn3 inhibitor project, CellTiter-Glo, cherry-picked (AID 624134); format: functional, cell-based
[3] = inhibitors of intracellular T. cruzi replication, confirmation, NIH3T3 host cells, beta-gal luminescence (AID 2044); format: functional, cell-based;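 note: intracellular parasites grown in NIH/3T3 mouse fibroblasts as host cells; luminescent beta-galactosidase reporter signal from transgenic T. cruzi replicating inside host cells; inhibitors lower the luminescence signal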
[4] = Shn3 3'UTR reporter inhibitors, dose response, cell-based, Clone20 osteoblasts, firefly luciferase, cherry-picked (AID 624132); format: functional;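 note: firefly luciferase luminescence from reporter carrying the Shn3 3'UTR in osteoblasts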
[5] = cytotoxicity toward NIH3T3 fibroblasts, dose response, counter-screen, cell-based, ATP luminescence, mouse fibroblasts (AID 2010); format: functional;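 note: cells exposed to compound for about 90 hours before reading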
[6] = molecular target: T1, Sentrin-specific protease 8 (Homo sapiens, UniProt Q96LD8); format: functional
T1 sequence (Q96LD8 whole entry): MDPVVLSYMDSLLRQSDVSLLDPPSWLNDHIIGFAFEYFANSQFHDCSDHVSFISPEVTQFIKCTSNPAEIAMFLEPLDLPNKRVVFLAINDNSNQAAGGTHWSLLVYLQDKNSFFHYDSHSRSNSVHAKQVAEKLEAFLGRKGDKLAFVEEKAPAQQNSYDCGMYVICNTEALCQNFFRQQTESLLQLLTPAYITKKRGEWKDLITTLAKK

[7] = molecular target: T1, Sentrin-specific protease 8; format: functional; remark: listed apart in the source
Phospholipase A2 = Phospholipase A2 (Homo sapiens, UniProt P04054); format: functional;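 note: confirmatory dose-response counterscreen on phospholipase A2, testing hits that came from an ultra-high-throughput screen for ATG4B inhibitors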
Cysteine protease ATG4B = molecular target: T2, Cysteine protease ATG4B (Homo sapiens, UniProt Q9Y4P1); format: functional;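 note: Fluorescence-based dose-response confirmation assay measuring inhibition of ATG4B activity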
T2 sequence (Q9Y4P1 whole entry): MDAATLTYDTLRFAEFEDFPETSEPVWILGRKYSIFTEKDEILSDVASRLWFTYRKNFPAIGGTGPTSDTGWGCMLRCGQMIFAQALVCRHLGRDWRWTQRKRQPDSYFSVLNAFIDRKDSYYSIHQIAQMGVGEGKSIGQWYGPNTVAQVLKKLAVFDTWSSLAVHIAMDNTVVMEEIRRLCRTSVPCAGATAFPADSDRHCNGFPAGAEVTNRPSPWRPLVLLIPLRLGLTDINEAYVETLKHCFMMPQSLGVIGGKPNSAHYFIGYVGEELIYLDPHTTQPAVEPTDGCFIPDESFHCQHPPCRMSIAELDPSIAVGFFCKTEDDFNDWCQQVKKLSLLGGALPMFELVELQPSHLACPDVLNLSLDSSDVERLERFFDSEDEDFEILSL

[8] = molecular target: T3, Adenosylmethionine-8-amino-7-oxononanoate aminotransferase (Mycobacterium tuberculosis, UniProt P9WQ81); experiment: Mycobacterium tuberculosis BioA enzyme inhibitor Measured in Biochemical System Using Plate Reader - 2163-02_Inhibitor_Dose_CherryPick_Activity.; format: functional, Mycobacterium tuberculosis UT205
T3 sequence (P9WQ81 whole entry): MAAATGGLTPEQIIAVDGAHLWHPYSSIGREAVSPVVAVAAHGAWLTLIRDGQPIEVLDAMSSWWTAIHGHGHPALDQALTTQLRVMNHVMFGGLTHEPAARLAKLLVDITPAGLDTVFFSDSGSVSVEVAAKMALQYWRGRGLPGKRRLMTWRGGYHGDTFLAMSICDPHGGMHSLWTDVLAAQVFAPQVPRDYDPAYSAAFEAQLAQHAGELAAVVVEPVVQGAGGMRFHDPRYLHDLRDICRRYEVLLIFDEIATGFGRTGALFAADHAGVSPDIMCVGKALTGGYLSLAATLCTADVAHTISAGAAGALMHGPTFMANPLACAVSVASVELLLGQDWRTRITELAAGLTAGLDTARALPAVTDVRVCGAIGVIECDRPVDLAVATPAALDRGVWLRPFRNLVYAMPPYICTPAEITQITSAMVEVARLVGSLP

Escherichia coli = experiment: microbe, parasite or virus in culture
HEK293 = experiment: inhibitors of LMP1-driven NF-kB reporter, dose response, cell-based, HEK293, luciferase, cherry-pick (AID 588343); format: functional; conditions: Homo sapiens
[9] = molecular target: T4, Corticotropin-releasing factor receptor 2/Corticotropin-releasing factor-binding protein (Homo sapiens, UniProt P24387+Q13324); experiment: activators of CRF receptor 2 with binding protein – uHTS hits, confirmation (AID 602473); format: functional; conditions: read-out: EC50_Mean
T4 sequence (Q13324 whole entry): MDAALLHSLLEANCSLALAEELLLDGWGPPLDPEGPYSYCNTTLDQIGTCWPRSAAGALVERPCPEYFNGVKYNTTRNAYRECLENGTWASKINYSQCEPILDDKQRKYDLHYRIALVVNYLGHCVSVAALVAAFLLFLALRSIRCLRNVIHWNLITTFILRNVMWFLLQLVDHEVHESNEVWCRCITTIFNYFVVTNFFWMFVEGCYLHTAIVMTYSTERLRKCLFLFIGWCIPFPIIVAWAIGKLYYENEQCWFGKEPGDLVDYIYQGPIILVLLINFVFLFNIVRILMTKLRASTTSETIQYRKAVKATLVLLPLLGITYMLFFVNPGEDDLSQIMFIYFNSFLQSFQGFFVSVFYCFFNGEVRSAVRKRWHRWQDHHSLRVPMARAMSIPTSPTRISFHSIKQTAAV
T4 sequence (P24387 whole entry): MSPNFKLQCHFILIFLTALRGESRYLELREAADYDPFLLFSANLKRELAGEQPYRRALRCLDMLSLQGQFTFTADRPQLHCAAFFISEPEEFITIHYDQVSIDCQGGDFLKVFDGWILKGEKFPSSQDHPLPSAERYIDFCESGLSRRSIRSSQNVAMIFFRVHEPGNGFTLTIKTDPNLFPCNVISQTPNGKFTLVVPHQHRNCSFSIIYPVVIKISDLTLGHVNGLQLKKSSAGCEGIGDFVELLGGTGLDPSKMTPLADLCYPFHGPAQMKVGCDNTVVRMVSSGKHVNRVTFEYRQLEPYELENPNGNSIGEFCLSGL

HeLa = experiment: HeLa cell cytotoxicity, dose response, cytotoxicity control for MITF activator project, CellTiter-Glo luminescence, cherry-pick samples (AID 540259); format: functional, cell-based; conditions: Homo sapiens
Streptokinase A = molecular target: T5, Streptokinase A (Streptococcus pyogenes serotype M1, UniProt P10520); experiment: S. pyogenes streptokinase expression inhibitors, potency, dose response, plasminogen activation absorbance, OD405 (AID 1914); format: functional, Streptococcus pyogenes M1 GAS;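 note: secreted streptokinase activity via plasminogen activation per viability signal from cell pellet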
T5 sequence (P10520 whole entry): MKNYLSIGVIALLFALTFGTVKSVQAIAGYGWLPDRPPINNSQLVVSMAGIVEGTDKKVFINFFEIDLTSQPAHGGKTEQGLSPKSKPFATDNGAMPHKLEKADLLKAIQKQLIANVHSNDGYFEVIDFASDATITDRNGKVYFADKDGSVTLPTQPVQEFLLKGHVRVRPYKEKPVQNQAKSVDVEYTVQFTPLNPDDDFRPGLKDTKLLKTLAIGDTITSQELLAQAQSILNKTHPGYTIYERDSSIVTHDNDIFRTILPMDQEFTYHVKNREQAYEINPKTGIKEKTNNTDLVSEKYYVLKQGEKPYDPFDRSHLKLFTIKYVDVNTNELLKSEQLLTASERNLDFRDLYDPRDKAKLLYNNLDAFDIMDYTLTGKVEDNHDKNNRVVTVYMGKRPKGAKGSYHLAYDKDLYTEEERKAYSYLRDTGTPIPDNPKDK

[10] = HIV-1 Env-mediated cell fusion inhibitors, dose response, CCR5-tropic Env (AID 2279); format: functional
Streptococcus = experiment: Group A Streptococcus viability loss, dose response, counter-screen for streptokinase expression inhibitor project, luminescence, BacTiterGlo (AID 1915); format: functional, organism-based;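 note: potency for reduction of bacterial viability or growth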
[11] = system: Streptococcus sp. 'group A'; experiment: growth inhibition of control SK(-) GAS strain, dose response, counter-screen for streptokinase expression inhibitor project, luminescence, kanamycin, BacTiterGlo, confirmation (AID 1900); format: functional, organism-based
Vero = experiment: cells; format: functional; conditions: Chlorocebus sabaeus

Phospholipase A2, sequence (P04054 whole entry): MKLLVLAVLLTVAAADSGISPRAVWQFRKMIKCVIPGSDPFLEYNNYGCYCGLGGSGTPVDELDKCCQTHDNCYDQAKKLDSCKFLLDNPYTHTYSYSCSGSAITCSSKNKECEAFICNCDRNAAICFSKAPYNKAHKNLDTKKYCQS

In the case of `CCOc1cc(CNCc2ccccc2)ccc1OCc1ccc(Cl)cc1`, the AC50 [1] is reported as 5.41 µM (active), the AC50 [2] is reported as 19.7 µM (active) and the EC50 [3] is reported as 2.88 µM (active). The AC50 [4] was 6.69 µM (active) and the EC50 [5] was > 16 µM (not active).
With `O=C(CS(=O)(=O)Cc1ccccc1)N1CCc2ccccc2C1` the IC50 [6] was 11.4 µM (active) and the IC50 [7] was 6.67 µM (active).
For `CCc1ccc2c(c1)C(c1ccc([N+](=O)[O-])cc1)=NNC(c1ccccc1)=N2`, the IC50 (Phospholipase A2) was 0.357 µM (active) and the IC50 (Cysteine protease ATG4B) was 0.399 µM (active).
For `CCCOc1ccc2c3c(c(=O)oc2c1OCCC)CCC3`, the IC50 (Phospholipase A2) was 7.13 µM (active), the IC50 (Cysteine protease ATG4B) was 11.4 µM (active) and the AC50 [8] was 14.7 µM (active).
For `CN1CCC(=NNC(=O)C(=O)Nc2cccc(Br)c2)CC1`, the AC50 (Escherichia coli) was 65.2 µM (active).
In the case of `COc1ccc(C=Cc2ccc3ccccc3n2)c(OC)c1`, the AC50 (HEK293) is reported as 14.5 µM (active) and the EC50 [9] is reported as > 53 µM (inactive).
With `COc1ccc2nc3ccccc3nc2c1` the AC50 (HeLa) was 73.5 µM (active).
With `O=C(O)c1cc(-c2ccc(-c3c(-c4ccc5c(c4)OCO5)noc3-c3ccsc3)cc2)nc2ccccc12` the EC50 (Streptokinase A) was > 150 µM (not active), the IC50 (Phospholipase A2) was 2.26 µM (active) and the IC50 (Cysteine protease ATG4B) was 6.81 µM (active). For the same compound, the IC50 [10] was 37.7 µM (active), the EC50 (Streptococcus) was 3.63 µM (active) and the AC50 (HeLa) was 52.5 µM (active). For the same compound, the EC50 [11] was 1.85 µM (active).
With `CCc1cc(-c2nnn(CCC3COCCO3)c2CC)ccc1-c1cn(Cc2ccccc2)nn1` (stereo not given) the CC50 (Vero) was 23.7 µM (active).
In the case of `CCCN1C(=O)C(=O)N(CC(=O)c2cc(C)n(C3CC3)c2C)C1=O`, the AC50 (HeLa) is reported as 62.6 µM (active).
